From ChEMBL document CHEMBL4673395, “Discovery of PIPE-359, a Brain-Penetrant, Selective M Receptor Antagonist with Robust Efficacy in Murine MOG-EAE” (ACS Med Chem Lett, 2021)

How the values were obtained:
[1] = biological target: T1, Muscarinic acetylcholine receptor M1 (Homo sapiens, UniProt P11229); assay: Antagonist activity at human recombinant muscarinic receptor M1 expressed in CHO-K1 cells assessed as EC80 acetylcholine-induced calcium flux incubated for 30 mins; format: functional, cell-based
T1 sequence (P11229 whole entry): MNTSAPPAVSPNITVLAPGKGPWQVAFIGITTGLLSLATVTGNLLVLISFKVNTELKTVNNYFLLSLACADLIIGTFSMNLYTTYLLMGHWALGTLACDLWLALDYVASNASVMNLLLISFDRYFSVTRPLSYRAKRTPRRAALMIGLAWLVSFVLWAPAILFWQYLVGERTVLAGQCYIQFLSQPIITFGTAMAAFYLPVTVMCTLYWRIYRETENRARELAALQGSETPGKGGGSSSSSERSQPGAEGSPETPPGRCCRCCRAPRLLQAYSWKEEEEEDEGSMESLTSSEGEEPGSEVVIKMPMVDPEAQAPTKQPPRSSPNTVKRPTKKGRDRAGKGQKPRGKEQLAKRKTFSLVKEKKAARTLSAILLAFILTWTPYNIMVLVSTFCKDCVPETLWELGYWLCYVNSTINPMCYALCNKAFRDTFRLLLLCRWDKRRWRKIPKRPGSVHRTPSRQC

[2] = Metabolic stability in rat liver microsomes assessed as parent compound remaining at 1 uM measured at 15 mins by LC-MS/MS analysis; format: ADME, Microsome; conditions: read-out: Stabilty
[3] = Fraction unbound rat plasma at 10 mg/kg, po measured after 2 hrs by LC-MS/MS; format: ADME, organism-based; conditions: in vivo
[4] = biological target: Voltage-gated inwardly rectifying potassium channel KCNH2 (Homo sapiens, UniProt Q12809); assay: Inhibition of human ERG expressed in HEK293 cells at 3 uM by patch clamp assay; format: cell-based; conditions: hek293, 3 µM
[5] = In vivo receptor occupancy at muscarinic M1 receptor in myelin oligodendrocyte glycoprotein (MOG)-induced experimental autoimmune encephalitis C57BL/6 mouse model assessed as decrease in occupancy at 30 mg/kg, po measured after 24 hrs; format: functional
[6] = Plasma concentration in rat at 10 mg/kg, po measured after 2 hrs by LC-MS/MS; format: ADME, organism-based
[7] = Fraction unbound in rat plasma at 10 mg/kg, po measured by LC-MS/MS; format: ADME, organism-based
[8] = Brain to plasma permeability coefficient, Kp of the compound in rat at 10 mg/kg, po measured after 2 hrs by LC-MS/MS; format: ADME, organism-based; conditions: read-out: K(p,uu,brain)
[9] = Apparant permeability across apical to basolateral side in dog MDCK-MDR1 cells; format: ADME, cell-based, Canis lupus familiaris
[10] = biological target: T2, Muscarinic acetylcholine receptor M2 (Homo sapiens, UniProt P08172); assay: Antagonist activity at human recombinant muscarinic receptor M2 expressed in CHO-K1 cells assessed as EC80 acetylcholine-induced calcium flux incubated for 30 mins; format: functional, cell-based; conditions: read-out: pIC50 (converted)
T2 sequence (P08172 whole entry): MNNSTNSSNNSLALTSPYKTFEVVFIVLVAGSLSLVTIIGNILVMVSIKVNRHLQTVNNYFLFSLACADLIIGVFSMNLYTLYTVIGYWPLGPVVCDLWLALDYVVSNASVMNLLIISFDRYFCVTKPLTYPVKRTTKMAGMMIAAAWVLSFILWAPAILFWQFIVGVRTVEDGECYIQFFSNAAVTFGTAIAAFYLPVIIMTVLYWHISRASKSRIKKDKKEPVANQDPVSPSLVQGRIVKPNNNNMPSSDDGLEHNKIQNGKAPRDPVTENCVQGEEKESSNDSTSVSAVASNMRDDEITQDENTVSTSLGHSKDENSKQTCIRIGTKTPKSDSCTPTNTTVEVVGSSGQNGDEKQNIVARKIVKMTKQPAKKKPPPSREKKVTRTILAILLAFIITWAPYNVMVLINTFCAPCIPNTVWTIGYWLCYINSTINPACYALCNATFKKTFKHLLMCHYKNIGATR

[11] = biological target: Muscarinic acetylcholine receptor M3 (Homo sapiens, UniProt P20309); assay: Antagonist activity at human recombinant muscarinic receptor M3 expressed in CHO-K1 cells assessed as EC80 acetylcholine-induced calcium flux incubated for 30 mins; format: functional, cell-based; conditions: read-out: pIC50 (converted)
Sequence of Muscarinic acetylcholine receptor M3 (P20309 whole entry): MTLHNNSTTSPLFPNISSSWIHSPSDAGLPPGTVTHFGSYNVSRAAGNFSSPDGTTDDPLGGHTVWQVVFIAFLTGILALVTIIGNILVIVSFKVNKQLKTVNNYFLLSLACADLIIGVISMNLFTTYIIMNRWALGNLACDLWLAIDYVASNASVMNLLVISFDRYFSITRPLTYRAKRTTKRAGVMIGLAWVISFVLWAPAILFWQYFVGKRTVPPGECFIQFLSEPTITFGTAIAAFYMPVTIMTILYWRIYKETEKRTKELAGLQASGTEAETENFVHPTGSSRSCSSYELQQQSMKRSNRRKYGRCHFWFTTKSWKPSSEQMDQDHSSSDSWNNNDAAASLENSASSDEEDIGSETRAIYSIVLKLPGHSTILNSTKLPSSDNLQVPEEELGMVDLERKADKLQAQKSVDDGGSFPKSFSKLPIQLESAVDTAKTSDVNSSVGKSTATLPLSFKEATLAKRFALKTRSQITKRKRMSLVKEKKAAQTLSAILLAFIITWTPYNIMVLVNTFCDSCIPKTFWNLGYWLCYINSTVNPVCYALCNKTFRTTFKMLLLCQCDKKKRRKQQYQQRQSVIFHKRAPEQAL

Sequence of Voltage-gated inwardly rectifying potassium channel KCNH2 (Q12809 whole entry): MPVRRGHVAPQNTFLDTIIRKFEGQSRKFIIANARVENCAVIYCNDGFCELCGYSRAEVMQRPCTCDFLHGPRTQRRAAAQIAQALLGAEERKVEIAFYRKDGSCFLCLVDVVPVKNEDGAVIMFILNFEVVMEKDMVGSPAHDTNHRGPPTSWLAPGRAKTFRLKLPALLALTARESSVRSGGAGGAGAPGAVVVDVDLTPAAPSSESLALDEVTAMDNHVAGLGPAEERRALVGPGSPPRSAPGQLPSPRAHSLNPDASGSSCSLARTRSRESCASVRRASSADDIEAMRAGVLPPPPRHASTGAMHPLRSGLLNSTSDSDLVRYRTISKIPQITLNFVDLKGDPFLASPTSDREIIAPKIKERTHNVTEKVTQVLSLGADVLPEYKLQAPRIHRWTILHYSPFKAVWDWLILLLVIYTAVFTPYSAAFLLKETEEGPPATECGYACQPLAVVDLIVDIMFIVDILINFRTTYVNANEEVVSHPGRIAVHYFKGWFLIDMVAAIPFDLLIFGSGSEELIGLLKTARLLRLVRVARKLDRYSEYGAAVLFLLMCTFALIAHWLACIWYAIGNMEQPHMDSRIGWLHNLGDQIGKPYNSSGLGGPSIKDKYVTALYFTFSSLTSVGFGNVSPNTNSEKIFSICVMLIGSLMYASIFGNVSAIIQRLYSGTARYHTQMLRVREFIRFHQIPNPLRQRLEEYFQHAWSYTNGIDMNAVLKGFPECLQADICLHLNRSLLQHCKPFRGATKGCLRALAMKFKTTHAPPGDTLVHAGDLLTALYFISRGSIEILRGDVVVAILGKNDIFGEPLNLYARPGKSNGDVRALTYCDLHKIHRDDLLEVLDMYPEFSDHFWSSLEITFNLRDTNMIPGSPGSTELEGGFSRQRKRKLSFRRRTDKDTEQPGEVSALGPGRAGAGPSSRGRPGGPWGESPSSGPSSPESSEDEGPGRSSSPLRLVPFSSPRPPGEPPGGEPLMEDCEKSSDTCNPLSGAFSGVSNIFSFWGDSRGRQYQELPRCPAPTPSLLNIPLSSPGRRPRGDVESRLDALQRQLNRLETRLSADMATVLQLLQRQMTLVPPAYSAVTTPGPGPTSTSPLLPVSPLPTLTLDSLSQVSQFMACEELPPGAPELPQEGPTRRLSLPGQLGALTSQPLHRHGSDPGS

IC50 ([1]; read-out: IC50) [nM]	remaining at 0.25 h, 1 µM [2] [%]	Compound	also measured
22		CC1CN(c2ccc(C#N)cn2)CCN1C(=O)CCS(=O)(=O)c1cccc2ncsc12 (racemic)	
5.8	59	N#Cc1ccc(N2CCN(C(=O)CCS(=O)(=O)c3cccc4ncsc34)CC2)nc1	Cp(f) [3]: 13 nM; inhibition (INH) [4]: 69%; Occ [5]: 50%; concentration at 2 h [6]: 89 nM; fraction unbound [7]: 0.15; Kp uu at 2 h [8]: 0.17
80		N#Cc1ccc(C2=CCN(C(=O)CCS(=O)(=O)c3cccc4ncsc34)CC2)nc1	
5.8		CC1CN(C(=O)CCS(=O)(=O)c2cccc3ncsc23)CCN1c1ccc(C#N)cn1 (racemic)	
4100		CC1(C)CN(c2ccc(C#N)cn2)CCN1C(=O)CCS(=O)(=O)c1cccc2ncsc12	
71	9.6	Cc1cc(F)cnc1N1CCN(C(=O)CCS(=O)(=O)c2cccc3ncsc23)[C@@H](C)C1	
32	41	O=C(CCS(=O)(=O)c1cccc2ncsc12)N1CCN(c2ccc(C(F)(F)F)cn2)CC1	
25		N#Cc1ccc(N2CC3CCC2CN3C(=O)CCS(=O)(=O)c2cccc3ncsc23)nc1 (racemic)	
160	31	O=C(CCS(=O)(=O)c1cccc2ncsc12)N1CCN(c2ccc(Cl)cn2)CC1	

Further lines, the compound ahead of its results:

Compound	IC50 ([1]; read-out: IC50) [nM]	remaining at 0.25 h, 1 µM [2] [%]	also measured
O=C(CCCc1cccc2ncccc12)N1CC2CC1CN2c1ccc(F)cn1 (racemic)	950		
Cc1cc(F)cnc1N1CCN(C(=O)CCCc2cccc3ncc(CO)cc23)[C@@H](C)C1	> 170	1	IC50 ([1]; read-out: pIC50 (converted)): 158 nM
Cc1cc(F)cnc1N1CCN(C(=O)CNCc2cccc3ncsc23)[C@@H](C)C1	3000		
Cc1cc(F)cnc1N1CCN(C(=O)CCCc2cccc3ncncc23)[C@@H](C)C1	83	0	
Cc1cc(F)cnc1N1CCN(C(=O)CCCc2cccc3ncccc23)[C@@H](C)C1		0.2	Papp A→B [9]: 8 ×10⁻⁶ cm/s; IC50 [10]: 2000 nM; IC50 [11]: 1260 nM
N#Cc1ccc(N2C3COCC2CN(C(=O)CCS(=O)(=O)c2cccc4ncsc24)C3)nc1	31		
Cc1cc(F)cnc1N1CCN(C(=O)CCCc2cccc3ncsc23)[C@@H](C)C1	24	5.3	
Cc1cc(F)cnc1N1CCCN(C(=O)CCCc2cccc3ncccc23)CC1	1400		
Cc1cc(F)cnc1N1CCN(C(=O)CCCc2cccc3cncnc23)[C@@H](C)C1	> 20000		IC50 ([1]; read-out: pIC50 (converted)): > 10000 nM
N#Cc1cc(N2CCN(C(=O)CCCc3cccc4ncccc34)CC2)ccn1	65		
N#Cc1ccc(N2CC3CCC(C2)N3C(=O)CCS(=O)(=O)c2cccc3ncsc23)nc1	8.7		
Cc1cc(F)cnc1N1CCN(C(=O)CCCc2cccc3nc(N)sc23)[C@@H](C)C1		3.7	
